Source: ChEMBL document CHEMBL4425179, “Colorectal anticancer activities of polymethoxylated 3-naphthyl-5-phenylpyrazoline-carbothioamides” (Bioorg Med Chem Lett, 2016)
pIC50: −log10 of the molar value. Calls of active or inactive are those of the source. No cut-off for these calls is given here.

Tests used:
HCT-116 [1] = assay: Growth inhibition of human HCT116 cells after 7 days by clonogenic survival assay; type: functional; details: HCT-116, 168 h
Homo sapiens = species on record: Homo sapiens; assay: Selectivity ratio of IC50 for human recombinant N-terminal His6-tagged full-length aurora A to IC50 for human recombinant His-tagged aurora B
Aurora kinase A = biological target: T1, Aurora kinase A (Homo sapiens, UniProt O14965); assay: Inhibition of human recombinant N-terminal His6-tagged full-length aurora A expressed in Sf21 insect cells using ER-alpha as substrate after 25 mins by immunoblot analysis
T1 sequence (O14965 whole entry): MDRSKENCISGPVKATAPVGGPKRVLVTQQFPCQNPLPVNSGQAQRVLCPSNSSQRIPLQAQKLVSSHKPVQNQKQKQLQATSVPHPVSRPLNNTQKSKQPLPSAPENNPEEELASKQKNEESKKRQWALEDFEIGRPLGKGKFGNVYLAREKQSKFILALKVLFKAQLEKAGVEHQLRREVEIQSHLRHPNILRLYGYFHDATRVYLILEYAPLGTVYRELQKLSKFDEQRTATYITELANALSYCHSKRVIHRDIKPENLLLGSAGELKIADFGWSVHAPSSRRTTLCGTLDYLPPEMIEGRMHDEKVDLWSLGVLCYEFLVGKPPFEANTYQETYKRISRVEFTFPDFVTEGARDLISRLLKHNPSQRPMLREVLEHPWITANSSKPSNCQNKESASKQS

HCT-116 [2] = assay: Downregulation of cyclin D1 expression in human HCT116 cells at 20 uM by Western blot analysis; type: functional, cell-based; details: TDE = time-dependent effect
HCT-116 [3] = assay: Cell cycle arrest in human HCT116 cells assessed as accumulation at S phase at 10 uM after 24 to 48 hrs by propidium iodide staining based flow cytometry (reference value: 13 to 18%); type: functional
HCT-116 [4] = assay: Cell cycle arrest in human HCT116 cells assessed as accumulation at G1 phase at 10 uM after 24 to 48 hrs by propidium iodide staining based flow cytometry (reference value: 51 to 58.9%); type: functional
HCT-116 [5] = assay: Cell cycle arrest in human HCT116 cells assessed as accumulation at sub-G1 phase at 20 uM after 48 hrs by propidium iodide staining based flow cytometry (reference value: 4%); type: functional
[6] = biological target: T2, Aurora kinase A (Homo sapiens) (UniProt O14965); assay: Inhibition of aurora A phosphorylation at Thr-288 in human HCT116 cells at 20 uM by Western blot analysis; type: cell-based; details: TDE = time-dependent effect
T2 sequence (whole entry): T1 sequence (O14965 whole entry)

HCT-116 [7] = assay: Induction of apoptosis in human HCT116 cells assessed as caspase 7 cleavage at 20 uM after 36 hrs by Western blot analysis; type: functional, cell-based
HCT-116 [8] = assay: Induction of apoptosis in human HCT116 cells assessed as caspase 9 cleavage at 20 uM after 36 hrs by Western blot analysis; type: functional, cell-based
Aurora kinase B [9] = biological target: T3, Aurora kinase B (Homo sapiens, UniProt Q96GD4); assay: Inhibition of aurora B phosphorylation at Thr-232 in human HCT116 cells at 20 uM by Western blot analysis; type: cell-based; details: TDE = time-dependent effect
HCT-116 [10] = assay: Induction of apoptosis in human HCT116 cells assessed as PARP cleavage at 20 uM after 36 hrs by Western blot analysis; type: functional, cell-based
HCT-116 [11] = assay: Cell cycle arrest in human HCT116 cells assessed as accumulation at G2/M phase at 20 uM after 24 to 48 hrs by propidium iodide staining based flow cytometry (reference value: 22.9 to 24%); type: functional
HCT-116 [12] = assay: Cell cycle arrest in human HCT116 cells assessed as accumulation at G2/M phase at 10 uM after 24 to 48 hrs by propidium iodide staining based flow cytometry (reference value: 22.9 to 24%); type: functional
HCT-116 [13] = assay: Cell cycle arrest in human HCT116 cells assessed as accumulation at G1 phase at 40 uM after 24 to 48 hrs by propidium iodide staining based flow cytometry (reference value: 51 to 58.9%); type: functional
Aurora kinase B [14] = biological target: T3, Aurora kinase B; assay: Inhibition of aurora B in human HCT116 cells assessed as decrease in histone H3 phosphorylation at Ser-10 at 20 uM by Western blot analysis; type: cell-based; details: TDE = time-dependent effect
HCT-116 [15] = assay: Cell cycle arrest in human HCT116 cells assessed as accumulation at G1 phase after 24 to 48 hrs by propidium iodide staining based flow cytometry; type: functional
HCT-116 [16] = assay: Cell cycle arrest in human HCT116 cells assessed as accumulation at G1 phase at 20 uM after 24 to 48 hrs by propidium iodide staining based flow cytometry (reference value: 51 to 58.9%); type: functional
HCT-116 [17] = assay: Cell cycle arrest in human HCT116 cells assessed as accumulation at S phase at 40 uM after 24 to 48 hrs by propidium iodide staining based flow cytometry (reference value: 13 to 18%); type: functional
[18] = biological target: T4, Aurora kinase C (Homo sapiens) (UniProt Q9UQB9); assay: Inhibition of aurora C phosphorylation at Thr-198 in human HCT116 cells at 20 uM by Western blot analysis; type: cell-based; details: TDE = time-dependent effect
T4 sequence (whole entry): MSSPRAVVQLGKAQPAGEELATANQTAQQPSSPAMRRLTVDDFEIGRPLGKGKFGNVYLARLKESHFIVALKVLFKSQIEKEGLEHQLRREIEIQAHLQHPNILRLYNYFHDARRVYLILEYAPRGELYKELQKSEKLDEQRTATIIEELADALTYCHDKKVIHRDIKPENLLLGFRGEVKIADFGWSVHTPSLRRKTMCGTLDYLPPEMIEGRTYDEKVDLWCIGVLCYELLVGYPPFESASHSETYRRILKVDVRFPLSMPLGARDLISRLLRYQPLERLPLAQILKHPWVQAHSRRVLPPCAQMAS

HCT-116 [19] = assay: Downregulation of cyclin B1 expression in human HCT116 cells at 20 uM by Western blot analysis; type: functional, cell-based; details: TDE = time-dependent effect
HCT-116 [20] = assay: Induction of apoptosis in human HCT116 cells assessed as caspase 3 cleavage at 20 uM after 36 hrs by Western blot analysis; type: functional, cell-based
HCT-116 [21] = assay: Cell cycle arrest in human HCT116 cells assessed as accumulation at S phase at 20 uM after 24 to 48 hrs by propidium iodide staining based flow cytometry (reference value: 13 to 18%); type: functional
[22] = biological target: T2, Aurora kinase A (Homo sapiens); assay: Inhibition of aurora A in human HCT116 cells assessed as decrease in histone H3 phosphorylation at Ser-10 at 20 uM by Western blot analysis; type: cell-based; details: TDE = time-dependent effect
HCT-116 [23] = assay: Cytotoxicity against human HCT116 cells assessed as decrease in cell viability after 24 hrs by WST-8 based CCK-8 assay; type: functional
Aurora kinase B [24] = biological target: T3, Aurora kinase B; assay: Inhibition of human recombinant His-tagged aurora B expressed in baculovirus infected Sf21 insect cells by Western blot analysis
HCT-116 [25] = assay: Cell cycle arrest in human HCT116 cells assessed as accumulation at G2/M phase at 40 uM after 24 to 48 hrs by propidium iodide staining based flow cytometry (reference value: 22.9 to 24%); type: functional

T3 sequence (Q96GD4 whole entry): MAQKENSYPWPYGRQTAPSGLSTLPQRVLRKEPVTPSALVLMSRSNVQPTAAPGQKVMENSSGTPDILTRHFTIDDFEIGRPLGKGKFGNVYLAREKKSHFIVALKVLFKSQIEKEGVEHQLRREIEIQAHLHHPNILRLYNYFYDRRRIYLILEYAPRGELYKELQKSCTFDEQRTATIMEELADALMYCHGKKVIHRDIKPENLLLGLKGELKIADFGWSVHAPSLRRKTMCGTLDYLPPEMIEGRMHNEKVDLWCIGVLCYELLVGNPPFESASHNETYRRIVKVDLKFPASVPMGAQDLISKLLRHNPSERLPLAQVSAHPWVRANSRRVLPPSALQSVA

## COc1cccc(C2CC(c3ccc4ccccc4c3O)=NN2C(=S)Nc2ccccc2OC)c1 (stereo not given)
HCT-116 [1]; read-out: GI50
  GI50: 3920 nM
HCT-116 [1]; read-out: pGI50 (converted)
  GI50: 3890 nM

## COc1ccc(C2CC(c3ccc4ccccc4c3O)=NN2C(=S)Nc2ccccc2OC)cc1 (stereo not given)
HCT-116 [1]; read-out: GI50
  GI50: 3540 nM
HCT-116 [1]; read-out: pGI50 (converted)
  GI50: 3550 nM

## COc1ccc(NC(=S)N2N=C(c3ccc4ccccc4c3O)CC2c2ccccc2OC)cc1 (stereo not given)
HCT-116 [1]; read-out: GI50
  GI50: 369 nM
HCT-116 [1]; read-out: pGI50 (converted)
  GI50: 372 nM

## COc1ccc(NC(=S)N2N=C(c3ccc4ccccc4c3O)CC2c2ccccc2OC)c(OC)c1 (stereo not given)
HCT-116 [1]; read-out: GI50
  GI50: 4200 nM
HCT-116 [1]; read-out: pGI50 (converted)
  GI50: 4170 nM

## COc1cccc(C2CC(c3ccc4ccccc4c3O)=NN2C(=S)Nc2ccccc2)c1 (stereo not given)
HCT-116 [1]; read-out: GI50
  GI50: 321 nM
HCT-116 [1]; read-out: pGI50 (converted)
  GI50: 324 nM

## COc1ccccc1C1CC(c2c(O)ccc3ccccc23)=NN1C(=S)Nc1cc(OC)c(OC)c(OC)c1 (stereo not given)
HCT-116 [1]; read-out: GI50
  GI50: 994 nM
HCT-116 [1]; read-out: pGI50 (converted)
  GI50: 1000 nM

## COc1ccc(C2CC(c3ccc4ccccc4c3O)=NN2C(=S)Nc2cccc(OC)c2)cc1 (stereo not given)
Homo sapiens
  Ratio IC50: 12.3
Aurora kinase A
  pIC50: 3.98
HCT-116 [2]
  Activity: Tde
HCT-116 [3]
  Activity: 23.7%
HCT-116 [4]
  Activity: 45.6%
HCT-116 [5]
  Activity: 17%
[6]
  inhibition: Tde
HCT-116 [7]
  Activity: Active
HCT-116 [8]
  Activity: Active
Aurora kinase B [9]
  inhibition: Tde
HCT-116 [10]
  Activity: Active
HCT-116 [11]
  Activity: 25.7 - 27%
HCT-116 [12]
  Activity: 26.8%
HCT-116 [13]
  Activity: 36.8%
HCT-116 [1]; read-out: GI50
  GI50: 196 nM
HCT-116 [1]; read-out: pGI50 (converted)
  GI50: 195 nM
Aurora kinase B [14]
  inhibition: Tde
HCT-116 [15]
  Activity: Dose-dependent effect
HCT-116 [16]
  Activity: 18 - 43.2%
HCT-116 [17]
  Activity: 29.4%
[18]
  inhibition: Tde
HCT-116 [19]
  Activity: Tde
HCT-116 [20]
  Activity: Active
HCT-116 [21]
  Activity: 27.4 - 28%
[22]
  inhibition: Tde
HCT-116 [23]
  Activity: Dose-dependent effect
Aurora kinase B [24]
  pIC50: 5.07
HCT-116 [25]
  Activity: 30.8%

## COc1ccccc1NC(=S)N1N=C(c2c(O)ccc3ccccc23)CC1c1ccccc1OC (stereo not given)
HCT-116 [1]; read-out: GI50
  GI50: 3970 nM
HCT-116 [1]; read-out: pGI50 (converted)
  GI50: 3980 nM

## COc1ccc(NC(=S)N2N=C(c3ccc4ccccc4c3O)CC2c2ccc(OC)cc2)cc1 (stereo not given)
HCT-116 [1]; read-out: GI50
  GI50: 234 nM
HCT-116 [1]; read-out: pGI50 (converted)
  GI50: 234 nM

## COc1cccc(NC(=S)N2N=C(c3ccc4ccccc4c3O)CC2c2cccc(OC)c2)c1 (stereo not given)
HCT-116 [1]; read-out: GI50
  GI50: 272 nM
HCT-116 [1]; read-out: pGI50 (converted)
  GI50: 269 nM

## COc1cccc(C2CC(c3ccc4ccccc4c3O)=NN2C(=S)Nc2cc(OC)c(OC)c(OC)c2)c1 (stereo not given)
HCT-116 [1]; read-out: GI50
  GI50: 201 nM
HCT-116 [1]; read-out: pGI50 (converted)
  GI50: 200 nM

## COc1ccc(C2CC(c3ccc4ccccc4c3O)=NN2C(=S)Nc2cc(OC)c(OC)c(OC)c2)cc1 (stereo not given)
HCT-116 [1]; read-out: GI50
  GI50: 208 nM
HCT-116 [1]; read-out: pGI50 (converted)
  GI50: 209 nM

## COc1ccccc1NC(=S)N1N=C(c2ccc3ccccc3c2O)CC1c1ccccc1OC (stereo not given)
HCT-116 [1]; read-out: GI50
  GI50: 4920 nM
HCT-116 [1]; read-out: pGI50 (converted)
  GI50: 4900 nM

## COc1ccc(NC(=S)N2N=C(c3ccc4ccccc4c3O)CC2c2cccc(OC)c2)cc1 (stereo not given)
HCT-116 [1]; read-out: GI50
  GI50: 318 nM
HCT-116 [1]; read-out: pGI50 (converted)
  GI50: 316 nM

## COc1ccc(C2CC(c3ccc4ccccc4c3O)=NN2C(=S)Nc2ccccc2)cc1 (stereo not given)
HCT-116 [1]; read-out: GI50
  GI50: 239 nM
HCT-116 [1]; read-out: pGI50 (converted)
  GI50: 240 nM

## COc1ccccc1C1CC(c2c(O)ccc3ccccc23)=NN1C(=S)Nc1ccccc1 (stereo not given)
HCT-116 [1]; read-out: GI50
  GI50: 2500 nM
HCT-116 [1]; read-out: pGI50 (converted)
  GI50: 2510 nM

## COc1cccc(C2CC(c3ccc4ccccc4c3O)=NN2C(=S)Nc2ccc(OC)cc2OC)c1 (stereo not given)
HCT-116 [1]; read-out: GI50
  GI50: 2430 nM
HCT-116 [1]; read-out: pGI50 (converted)
  GI50: 2450 nM

## COc1ccc(NC(=S)N2N=C(c3c(O)ccc4ccccc34)CC2c2ccccc2OC)cc1 (stereo not given)
HCT-116 [1]; read-out: GI50
  GI50: 742 nM
HCT-116 [1]; read-out: pGI50 (converted)
  GI50: 741 nM

## COc1ccccc1C1CC(c2ccc3ccccc3c2O)=NN1C(=S)Nc1cc(OC)c(OC)c(OC)c1 (stereo not given)
HCT-116 [1]; read-out: GI50
  GI50: 223 nM
HCT-116 [1]; read-out: pGI50 (converted)
  GI50: 224 nM

## COc1ccccc1C1CC(c2ccc3ccccc3c2O)=NN1C(=S)Nc1ccccc1 (stereo not given)
HCT-116 [1]; read-out: GI50
  GI50: 742 nM
HCT-116 [1]; read-out: pGI50 (converted)
  GI50: 741 nM

## COc1ccc(C2CC(c3ccc4ccccc4c3O)=NN2C(=S)Nc2ccc(OC)cc2OC)cc1 (stereo not given)
HCT-116 [1]; read-out: GI50
  GI50: 2470 nM
HCT-116 [1]; read-out: pGI50 (converted)
  GI50: 2450 nM

## COc1cccc(NC(=S)N2N=C(c3ccc4ccccc4c3O)CC2c2ccccc2OC)c1 (stereo not given)
HCT-116 [1]; read-out: GI50
  GI50: 445 nM
HCT-116 [1]; read-out: pGI50 (converted)
  GI50: 447 nM
